Experiments:
[1] = tested on: iNOS; assay: Cytokine-induced iNOS protein expression in HT-29 cells (Western blot); type: cell-based, human; details: HT-29; for inhibition of iNOS expression: with cytokine mixture (each 10 ng/ml), 15 hr
Experimental: HT-29 human colon adenocarcinoma cells were grown in 10% FBC/DMEM. Cells (about 600,000 cells/well) were plated in 6-well plate and treated with stilbene analogs shown in FIG. 4 (each at 10 μM) for 15 hours together with cytokine mixture comprising TNF-a, IFN0g, and LPS (each at 10 ng/ml). Cell lysates were prepared and subjected to Western Blot analysis.
Human colon carcinoma cell lines HT-29 was obtained from the American Type Culture Collection (Manassas, Va.). The cells were maintained in Dulbecco's modification of Eagle's medium (DMEM) supplemented with 10% FBS and 1% penicillin/streptomycin at 37° C. and 5% CO2. The cytokine mixture, consisting of 10 ng/ml of TNF-α, IFN-γ and LPS, was used to induce iNOS and COX-2, unless otherwise mentioned. The cells were treated with the test compound either alone or in combination with cytokines for different time intervals and harvested for protein or RNA.
(§1) The cell culture conditions and the reagents used in this example were described in Example 32. Whole cell extracts were collected after the various treatments and analyzed by western blotting. The protein samples were separated on 4-15% SDS-PAGE gels (Biorad, Hercules, Calif.) followed by transfer to a polyvinylidene fluoride membrane. The membranes were blocked with 5% milk in Tris buffer for 1 h and then incubated with the appropriate primary antibody solutions overnight at 4° C. The membranes were washed with Tris buffer, and incubated with horseradish peroxidase conjugated secondary antibody solutions for 1 h at room temperature.
(§2) The protein bands were visualized using a chemiluminescence based kit from Amersham Biosciences (Buckinghamshire, UK). The primary antibodies against iNOS, COX-2, IκBα, cyclin D1, c-myc (Santa Cruz Bio-technology, Santa Cruz, Calif.), phospho-STAT3, phospho-Erk1/2, phospho-JNK1/2, phospho-p38, phospho-Akt, phospho-ATF2, phospho-Elk1, PARP (Cell Signaling Technology Inc., Beverly, Mass.) and actin (Sigma, St. Louis, Mo.) and secondary antibodies (Santa Cruz Biotechnology, Santa Cruz, Calif.) were used for probing the abundance of the target protein in the samples.

[2] = tested on: B16M-F10 melanoma cells; details: intravenous administration to mice; cited from earlier work
[3] = tested on: c-myc; assay: Western blot of c-myc in HT-29 cells; type: cell-based, human; details: 9 h or 18 h, especially at 9 h
Experimental: (§3) The cells were incubated with different concentrations of pterostilbene for 1, 2 and 3 days, and cell proliferation was estimated by measuring [^3H]thymidine incorporated into DNA. […] In order to evaluate whether pterostilbene potentiates cell cycle arrest or apoptosis in HT-29 cells, the effect of pterostilbene on the proteins regulating the cell cycle and/or apoptosis pathways was examined. Cells treated with pterostilbene for 9 h or 18 h were harvested and protein samples were analyzed by Western blotting (FIG. 8B).
as §1
(§4) The protein bands were visualized using a chemiluminescence based kit from Amersham Biosciences (Buckinghamshire, UK). […]

[4] = tested on: proliferating cell nuclear antigen (PCNA); assay: PCNA immunostaining and labeling index of colon sections; type: in vivo, male F344 rats; details: 40 ppm in diet, AOM-treated rats
Experimental: Total number of ACF/colon and multiple aberrant crypts/focus were counted and the data were analyzed by Student's t-test. The PCNA labeling index (PI) was calculated as the [(number of positive cells)/(total number of cells)]×100 for each field which is averaged to get the PI for each section. The significance of treatment between the groups was analyzed by Student's t-Test.
(§5) Animals were treated as described in Example 27. Colon samples from each group were harvested at autopsy and fixed in 10% formalin for 24 hr. They were sectioned into 8 to 10 segments, paraffin embedded, and microtomed into 4 μm thick tissue sections. The slides were incubated overnight at room temperature with antibody to proliferating cell nuclear antigen (PCNA) (1:1000 diluted, BD Pharmingen, San Diego, Calif.), iNOS (1:100 diluted, Santa Cruz Biotechnology, Santa Cruz, Calif.), or mucin MUC2 (1:250 diluted, Santa Cruz Biotechnology, Santa Cruz, Calif.).
The slides were incubated with the biotinylated secondary antibody, and then with avidin/biotinylated peroxidase complex for 30 min at room temperature (Vector Labs, Burlingame, Calif.), and were incubated with […] (DAB) substrate. The sections were then counter-stained with Modified Harris Hematoxylin. The images were taken randomly at 400× using Zeiss AxioCam HRc camera fitted to a Zeiss Axioskope 2 Plus microscope. […]

[5] = tested on: p-Akt; assay: Western blot of p-Akt in cytokine-treated HT-29 cells; type: cell-based, human
Experimental: as §1, §2

[6] = tested on: cleaved PARP; assay: Western blot of cleaved PARP in HT-29 cells (apoptosis marker); type: cell-based, human; details: 9 h or 18 h
Experimental: as §3, §1, §4

[7] = tested on: Elk-1; assay: Western blot of cytokine-induced Elk-1 phosphorylation in HT-29 cells; type: cell-based, human; details: cytokine-treated HT-29
Experimental: as §1
as §2, with “samples. […]” for “samples.”

[8] = rats; cited from earlier work
[9] = tested on: p-JNK1/2; assay: Western blot of p-JNK1/2 in cytokine-treated HT-29 cells; type: cell-based, human
Experimental: as §1, §2

[10] = 25 mg pterostilbene/kg diet, hypercholesterolemic hamsters; cited from earlier work
[11] = tested on: IκBα; assay: Western blot of IκBα after cytokine treatment of HT-29 cells; type: cell-based, human; details: cytokine treatment 15 min
Experimental: as §1, §2
The significance of the JAK-STAT pathway in HT-29 cells was evaluated by probing for phospho-STAT3. Cytokines activated the STAT pathway, as shown by a strong induction of phospho-STAT3.

[12] = tested on: mucin MUC2; assay: Mucin MUC2 immunostaining of colon sections; type: in vivo, male F344 rats; details: 40 ppm in diet, AOM-treated rats
Experimental: as §5
The slides were incubated with the biotinylated secondary antibody, and then with avidin/biotinylated peroxidase complex for 30 min at room temperature (Vector Labs, Burlingame, Calif.), and were incubated with […] (DAB) substrate. The sections were then counter-stained with Modified Harris Hematoxylin. The images were taken randomly at 400× using Zeiss AxioCam HRc camera fitted to a Zeiss Axioskope 2 Plus microscope. A positive reaction is noted by a reddish brown precipitate in the nucleus for PCNA, in the cytoplasm for iNOS or in the colon crypts for mucin MUC2.

COc1cc(/C=C/c2ccc(O)cc2)cc(OC)c1 [pterostilbene, (E)-4-(3,5-dimethoxystyryl)phenol]
inhibition of iNOS expression ([1]; 1 μM): 14%
inhibition of iNOS expression ([1]; 10 μM): 61%
induction of iNOS by the cytokine mixture ([1]; 30 μM, 9, 12 and 15 h): markedly blocked
inhibition of iNOS expression ([1]; 30 μM): 77%
induction of iNOS by the cytokine mixture, different concentrations ([1]; different concentrations): dose-dependent manner
metastatic growth of B16M-F10 melanoma cells in the liver [2]: inhibited metastatic growth
c-myc level [3]: effective in reducing
PCNA positive cells (%) of colon tissue [4]: 44.2±2.9%
level of p-Akt [5]: did not change
level of cleaved PARP [6]: increased
cytokine-induced activation (phosphorylation) of Elk-1 [7]: effective in inhibiting
serum glucose [8]: lower serum glucose
p-JNK1/2 protein levels [9]: only a small effect
plasma cholesterol and lipoproteins [10]: lowered plasma cholesterol and lipoproteins
effects on IκBα induced by the cytokines [11]: did not block
mucin MUC2 staining of colon mucosa [12]: abundant secretion of mucin MUC2
